# Earlier results in patent US7026311B2, “Dibenzodiazepine derivatives, their preparation and use” (Abbott GmbH & Co., KG, priority 2002, dated 2006).
# Conditions: S. Cuzzocrea et al., Br. J. Pharmacol. 1997
smiles,measurement,value
"NC(=O)c1cccc(N)c1 [Example 3-aminobenzamide, 3-aminobenzamide]",effects in a model of circulatory shock,protective effects
